In patent publication US11066396B2 (priority 2016, dated 2021) one finds IC50 data, which are given here for 13 compounds.

For one experiment, the target named is HDAC1 (Homo sapiens (Human), UniProt Q13547). As to conditions: read-out: HDAC1 IC50.
Another experiment has as its target HDAC5 (Homo sapiens (Human), UniProt Q9UQL6). The settings on record: read-out: HDAC5 IC50.

Broadly, the IC50 is the concentration needed to halve the response being measured.

Chain of HDAC5 (Q9UQL6 656-1122): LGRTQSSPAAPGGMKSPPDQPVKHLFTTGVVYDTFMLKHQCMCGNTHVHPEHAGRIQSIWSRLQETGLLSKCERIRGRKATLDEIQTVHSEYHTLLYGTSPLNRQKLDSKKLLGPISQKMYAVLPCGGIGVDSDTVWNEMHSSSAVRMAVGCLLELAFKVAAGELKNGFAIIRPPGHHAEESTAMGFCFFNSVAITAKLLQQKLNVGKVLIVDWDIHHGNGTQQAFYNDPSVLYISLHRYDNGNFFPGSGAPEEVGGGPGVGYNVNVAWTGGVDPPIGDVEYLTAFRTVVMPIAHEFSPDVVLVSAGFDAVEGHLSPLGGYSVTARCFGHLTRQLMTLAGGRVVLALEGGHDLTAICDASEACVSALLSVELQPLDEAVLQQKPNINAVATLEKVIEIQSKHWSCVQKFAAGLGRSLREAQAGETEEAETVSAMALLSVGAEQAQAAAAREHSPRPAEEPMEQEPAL
Chain of HDAC1 (Q13547 whole entry): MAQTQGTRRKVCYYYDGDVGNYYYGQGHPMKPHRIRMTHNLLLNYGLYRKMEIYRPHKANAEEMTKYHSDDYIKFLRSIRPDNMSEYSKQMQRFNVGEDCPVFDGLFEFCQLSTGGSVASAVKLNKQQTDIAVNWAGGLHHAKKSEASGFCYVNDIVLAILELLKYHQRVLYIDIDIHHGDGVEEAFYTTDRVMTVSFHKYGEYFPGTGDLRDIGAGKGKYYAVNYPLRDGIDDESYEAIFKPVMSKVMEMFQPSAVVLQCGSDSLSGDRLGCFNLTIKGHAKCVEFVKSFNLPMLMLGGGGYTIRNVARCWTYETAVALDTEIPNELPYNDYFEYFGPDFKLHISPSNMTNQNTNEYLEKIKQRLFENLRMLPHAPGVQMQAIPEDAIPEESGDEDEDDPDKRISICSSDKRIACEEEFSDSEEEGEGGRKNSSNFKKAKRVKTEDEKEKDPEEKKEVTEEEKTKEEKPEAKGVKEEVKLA

Turning to `Fc1ccc(OCc2ccc(-c3noc(C(F)(F)F)n3)c(F)c2)cn1` [Example 260, 2-fluoro-5-({3-fluoro-4-[5-(trifluoromethyl)-1,2,4-oxadiazol-3-yl]phenyl}methoxy)pyridine], the figures for the IC50 on HDAC1 and at HDAC5 were 12000 nM and 120 nM, respectively.

Regarding `Fc1cc(COc2nc3cccnc3n2CC(F)(F)F)ccc1-c1noc(C(F)(F)F)n1` [Example 278, 2-({3-fluoro-4-[5-(trifluoromethyl)-1,2,4-oxadiazol-3-yl]phenyl}methoxy)-3-(2,2,2-trifluoroethyl)-3H-imidazo[4,5-b]pyridine], the half-inhibitory concentration (IC50) was 780 nM on HDAC1 and 86 nM at HDAC5.

Take `Fc1cc(COc2cnc(C3CC3)nc2)ccc1-c1noc(C(F)(F)F)n1` [Example 276, 2-cyclopropyl-5-({3-fluoro-4-[5-(trifluoromethyl)-1,2,4-oxadiazol-3-yl]phenyl}methoxy)pyrimidine]: the half-maximal inhibitory concentration (IC50) at HDAC1 came to 1500 nM; on HDAC5, 120 nM.

In the case of `Fc1cc(-c2noc(C(F)(F)F)n2)ccc1COc1ccccc1` [Example 168, 3-(3-Fluoro-4-(phenoxymethyl)phenyl)-5-(trifluoromethyl)-1,2,4-oxadiazole], the half-inhibitory concentration (IC50) at HDAC1 was 15000 nM; on HDAC5, 1100 nM.

In the case of `FC(F)(F)c1nc(-c2ccc(COc3nncc4ccccc34)nc2)no1` [Example 298, 1-({5-[5-(trifluoromethyl)-1,2,4-oxadiazol-3-yl]pyridin-2-yl}methoxy)phthalazine], the IC50 on HDAC1 turned out to be 1000 nM; at HDAC5, 290 nM.

For `FC(F)(F)c1nc(-c2ccnc(OCc3nccnc3Cl)c2Cl)no1` [Example 294, 2-chloro-3-[({3-chloro-4-[5-(trifluoromethyl)-1,2,4-oxadiazol-3-yl]pyridin-2-yl}oxy)methyl]pyrazine], the values for the half-maximal inhibitory concentration (IC50) at HDAC1 and on HDAC5 were 12000 nM and 410 nM, respectively.

With `Cc1cncnc1OCc1ccc(-c2noc(C(F)(F)F)n2)cn1` [Example 307, 5-methyl-4-({5-[5-(trifluoromethyl)-1,2,4-oxadiazol-3-yl]pyridin-2-yl}methoxy)pyrimidine], the results for the IC50 on HDAC1 and on HDAC5 were 2200 nM and 620 nM, respectively.

`Fc1cc(F)c(OCc2ccc(-c3noc(C(F)(F)F)n3)c(F)c2)cn1` [Example 283, 2,4-difluoro-5-({3-fluoro-4-[5-(trifluoromethyl)-1,2,4-oxadiazol-3-yl]phenyl}methoxy)pyridine]: the IC50 at HDAC1 was determined as 45000 nM; at HDAC5 it was 75 nM.

`Fc1cc(COc2cccnn2)ccc1-c1noc(C(F)(F)F)n1` [Example 257, 3-({3-fluoro-4-[5-(trifluoromethyl)-1,2,4-oxadiazol-3-yl]phenyl}methoxy)pyridazine]: the IC50 came out at 6400 nM on HDAC1 and 200 nM on HDAC5.

On to `Fc1cc(COc2ccc3cncnc3c2)ccc1-c1noc(C(F)(F)F)n1` [Example 285, 7-({3-fluoro-4-[5-(trifluoromethyl)-1,2,4-oxadiazol-3-yl]phenyl}methoxy)quinazoline], for which the IC50 came to 3400 nM on HDAC1 and 280 nM on HDAC5.

For `O=S1(=O)CCC(S(=O)(=O)N(Cc2ccc(-c3noc(C(F)(F)F)n3)cc2)c2cccc(C(F)(F)F)c2)C1` (racemic) [Example 492, 1,1-dioxo-N-({4-[5-(trifluoromethyl)-1,2,4-oxadiazol-3-yl]phenyl}methyl)-N-[3-(trifluoromethyl)phenyl]-llambda~6~-thiolane-3-sulfonamide], the 50% inhibitory concentration (IC50) on HDAC1 stood at 1200 nM; at HDAC5, 390 nM.

With `Fc1cc(COc2nnnc3ccccc23)ccc1-c1noc(C(F)(F)F)n1` [Example 262, 4-({3-fluoro-4-[5-(trifluoromethyl)-1,2,4-oxadiazol-3-yl]phenyl}methoxy)-1,2,3-benzotriazine], the half-maximal inhibitory concentration (IC50) came to 2900 nM on HDAC1 and 120 nM on HDAC5.

`FC(F)(F)c1nc(-c2ccc(COc3ccc4cnccc4n3)nc2)no1` [Example 311, 2-({5-[5-(trifluoromethyl)-1,2,4-oxadiazol-3-yl]pyridin-2-yl}methoxy)-1,6-naphthyridine]: the half-maximal inhibitory concentration (IC50) on HDAC1 worked out at 880 nM; at HDAC5, 540 nM.
